Assay results published in US8247211B2, “Glycopeptide antibiotics” (American Cyanamid Company, priority 2001, dated 2012).

Assays:
Assay in all cases: In vitro antibacterial evaluation: minimum inhibitory concentration (MIC), broth dilution method
Assay type in all cases: cell-based
Escherichia coli = test system: Escherichia coli
In short: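 NCCLS M7-A2 broth dilution with Mueller-Hinton II, testing 64-0.06 μg/mL antibiotic against 5×10^5 CFU/mL inocula. Test strains include recent methicillin-, penicillin- or vancomycin-resistant clinical isolates. MIC is the lowest concentration preventing growth.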

Staphylococcus sp. = test system: Staphylococcus sp.
In short: (§1)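 MIC read as lowest drug level preventing visible growth. Organisms at 5×10^5 CFU/mL were exposed to a 64-0.06 μg/mL dilution series in Muller-Hinton II […] following NCCLS broth dilution standard M7-A2.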

Streptococcus sp. = test system: Streptococcus sp.
In short: as §1

Enterococcus sp. = test system: Enterococcus sp.
In short: as §1

[1] = broth dilution, inoculum 5×10^5 CFU/mL, 18 hours at 35° C.
[2] = broth dilution, 5×10^5 CFU/mL, 18 hours at 35° C.

CC(c1ccccc1)C1NC(=O)CNC(=O)C(CO)NC(=O)C(C(O)C2CNC(=N)N2C2OC(CO)C(O)C(O)C2O)NC(=O)C(C(O)C2CNC(=N)N2)NC(=O)C(Cc2ccc(OC3OC(CO)C(OC4OC(COCC=Cc5ccccc5)C(O)C(O)C4O)C(O)C3O)cc2)NC1=O (stereo not drawn) [Example 242, Cyclo[glycyl-β-methylphenylalanyl-O-[4-O-[6-O-(3-phenylprop-2-en-1-yl)hexopyranosyl]-hexopyranosyl]tyrosyl-3-(2-iminoimidazolidin-4-yl)seryl-3-(3-hexopyranosyl-2-iminoimidazolidin-4-yl)serylseryl]]
4 mg/L: MIC Coagulase Negative Staphylococcus (GC 4548) (Staphylococcus sp.; Coagulase Negative Staphylococcus (GC 4548), 18 hours at 35° C.) | MIC Coagulase Negative Staphylococcus (GC 4549) (Staphylococcus sp.; Coagulase Negative Staphylococcus (GC 4549), 18 hours at 35° C.) | MIC Staphylococcus aureus (GC 4541) (Staphylococcus sp.; Staphylococcus aureus (GC 4541), 18 hours at 35° C.) | MIC Staphylococcus aureus (GC 4542) (Staphylococcus sp.; Staphylococcus aureus (GC 4542), 18 hours at 35° C.) | MIC Staphylococcus aureus (GC 4545) (Staphylococcus sp.; Staphylococcus aureus (GC 4545), 18 hours at 35° C.) | MIC Staphylococcus haemolyticus (GC 4546) (Staphylococcus sp.; Staphylococcus haemolyticus (GC 4546), 18 hours at 35° C.)
>64 mg/L: MIC Escherichia coli (ATCC 25922) (Escherichia coli; Escherichia coli (ATCC 25922), 18 hours at 35° C.) | MIC Escherichia coli (GC 4559) (Escherichia coli; Escherichia coli (GC 4559), 18 hours at 35° C.)
8 mg/L: MIC Coagulase Negative Staphylococcus (GC 4547) (Staphylococcus sp.; Coagulase Negative Staphylococcus (GC 4547), 18 hours at 35° C.) | MIC Staphylococcus aureus (ATCC 29213) (Staphylococcus sp.; Staphylococcus aureus (ATCC 29213), 18 hours at 35° C.) | MIC Staphylococcus aureus (GC 1131) (Staphylococcus sp.; Staphylococcus aureus (GC 1131), 18 hours at 35° C.) | MIC Staphylococcus aureus (GC 3051) (Staphylococcus sp.; Staphylococcus aureus (GC 3051), 18 hours at 35° C.) | MIC Staphylococcus aureus (GC 3053) (Staphylococcus sp.; Staphylococcus aureus (GC 3053), 18 hours at 35° C.) | MIC Staphylococcus aureus (GC 4544) (Staphylococcus sp.; Staphylococcus aureus (GC 4544), 18 hours at 35° C.) | MIC Staphylococcus aureus-SMITH (GC 4543) (Staphylococcus sp.; Staphylococcus aureus-SMITH (GC 4543), 18 hours at 35° C.) | MIC Enterococcus faecium (GC 4557) (Enterococcus sp.; Enterococcus faecium (GC 4557), 18 hours at 35° C.)
2 mg/L: MIC Escherichia coli (GC 4560) (Escherichia coli; Escherichia coli (GC 4560), 18 hours at 35° C.) | MIC Coagulase Negative Staphylococcus (GC 6257) (Staphylococcus sp.; Coagulase Negative Staphylococcus (GC 6257), 18 hours at 35° C.) | MIC Streptococcus agalactiae (GC 4564) (Streptococcus sp.; Streptococcus agalactiae (GC 4564), 18 hours at 35° C.) | MIC Streptococcus pyogenes (GC 4563) (Streptococcus sp.; Streptococcus pyogenes (GC 4563), 18 hours at 35° C.) | MIC Streptococcus agalactiae (GC 4564) (Streptococcus sp.; [1]) | MIC Streptococcus pyogenes (GC 4563) (Streptococcus sp.; [1])
0.5 mg/L: MIC Streptococcus pneumoniae (GC 1894) (Streptococcus sp.; Streptococcus pneumoniae (GC 1894), 18 hours at 35° C.) | MIC Streptococcus pneumoniae (GC 4565) (Streptococcus sp.; Streptococcus pneumoniae (GC 4565), 18 hours at 35° C.) | MIC Streptococcus pneumoniae (GC 1894) (Streptococcus sp.; [1]) | MIC Streptococcus pneumoniae (GC 4565) (Streptococcus sp.; [1])
1 mg/L: MIC Streptococcus pneumoniae (ATCC 6301) (Streptococcus sp.; Streptococcus pneumoniae (ATCC 6301), 18 hours at 35° C.) | MIC Streptococcus pneumoniae (ATCC 6301) (Streptococcus sp.; [1])
16 mg/L: MIC Coagulase Negative Staphylococcus (GC 4551) (Staphylococcus sp.; Coagulase Negative Staphylococcus (GC 4551), 18 hours at 35° C.) | MIC Enterococcus avium (GC 4558) (Enterococcus sp.; Enterococcus avium (GC 4558), 18 hours at 35° C.) | MIC Enterococcus faecalis (ATCC 29212) (Enterococcus sp.; Enterococcus faecalis (ATCC 29212), 18 hours at 35° C.) | MIC Enterococcus faecalis (GC 2242) (Enterococcus sp.; Enterococcus faecalis (GC 2242), 18 hours at 35° C.) | MIC Enterococcus faecalis (GC 2691) (Enterococcus sp.; Enterococcus faecalis (GC 2691), 18 hours at 35° C.) | MIC Enterococcus faecalis (GC 3059) (Enterococcus sp.; Enterococcus faecalis (GC 3059), 18 hours at 35° C.) | MIC Enterococcus faecalis (GC 4552) (Enterococcus sp.; Enterococcus faecalis (GC 4552), 18 hours at 35° C.) | MIC Enterococcus faecalis (GC 4553) (Enterococcus sp.; Enterococcus faecalis (GC 4553), 18 hours at 35° C.) | MIC Enterococcus faecalis (GC 4554) (Enterococcus sp.; Enterococcus faecalis (GC 4554), 18 hours at 35° C.) | MIC Enterococcus faecalis (GC 6189) (Enterococcus sp.; Enterococcus faecalis (GC 6189), 18 hours at 35° C.) | MIC Enterococcus faecium (GC 2243) (Enterococcus sp.; Enterococcus faecium (GC 2243), 18 hours at 35° C.) | MIC Enterococcus faecium (GC 4556) (Enterococcus sp.; Enterococcus faecium (GC 4556), 18 hours at 35° C.) | MIC Enterococcus faecalis (GC 2242) (Enterococcus sp.; [1]) | MIC Enterococcus faecalis (GC 2691) (Enterococcus sp.; [1]) | MIC Enterococcus faecalis (GC 3059) (Enterococcus sp.; [1])

CC(C)=CCCC(C)=CCOc1ccc(C2OCC3OC(OC4C(CO)OC(Oc5ccc(CC6NC(=O)C(C(C)c7ccccc7)NC(=O)CNC(=O)C(CO)NC(=O)C(C(O)C7CNC(=N)N7C7OC(CO)C(O)C(O)C7O)NC(=O)C(C(O)C7CNC(=N)N7)NC6=O)cc5)C(O)C4O)C(O)C(O)C3O2)cc1 (stereo not drawn) [Example 183, Cyclo[glycyl-β-methylphenylalanyl-O-[4-O-[4,6-O-[4-[(3,7-dimethylocta-2,6-dien-1-yl)oxy]-benzylidene]hexopyranosyl]hexopyranosyl]tyrosyl-3-(2-iminoimidazolidin-4-yl)seryl-3-(3-hexopyranosyl-2-iminoimidazolidin-4-yl)serylseryl]]
2 mg/L: MIC Staphylococcus aureus (GC 3051) (Staphylococcus sp.; [2]) | MIC Staphylococcus aureus (GC 3053) (Staphylococcus sp.; [2]) | MIC Staphylococcus aureus (GC 3051) (Staphylococcus sp.; strain GC 3051, broth dilution, 18 hours at 35° C.) | MIC Staphylococcus aureus (GC 3053) (Staphylococcus sp.; strain GC 3053, broth dilution, 18 hours at 35° C.) | MIC Coagulase Negative Staphylococcus (GC 4548) (Staphylococcus sp.; strain GC 4548) | MIC Coagulase Negative Staphylococcus (GC 6257) (Staphylococcus sp.; strain GC 6257) | MIC Enterococcus avium (GC 4558) (Enterococcus sp.; [1]) | MIC Enterococcus faecalis (GC 2691) (Enterococcus sp.; [1]) | MIC Enterococcus faecalis (GC 6189) (Enterococcus sp.; [1]) | MIC Enterococcus faecium (GC 2243) (Enterococcus sp.; [1]) | MIC Enterococcus faecium (GC 2243) (Enterococcus sp.; strain GC 2243) | MIC Enterococcus faecalis (GC 2691) (Enterococcus sp.; strain GC 2691) | MIC Enterococcus avium (GC 4558) (Enterococcus sp.; strain GC 4558) | MIC Enterococcus faecalis (GC 6189) (Enterococcus sp.; strain GC 6189)
>64 mg/L: MIC Escherichia coli (ATCC 25922) (Escherichia coli; strain ATCC 25922) | MIC Escherichia coli (GC 4559) (Escherichia coli; strain GC 4559)
8 mg/L: MIC Staphylococcus aureus (GC 1131) (Staphylococcus sp.; [2]) | MIC Staphylococcus aureus (GC 4541) (Staphylococcus sp.; [2]) | MIC Staphylococcus aureus (GC 1131) (Staphylococcus sp.; strain GC 1131, broth dilution, 18 hours at 35° C.) | MIC Staphylococcus aureus (GC 4541) (Staphylococcus sp.; strain GC 4541, broth dilution, 18 hours at 35° C.) | MIC Staphylococcus haemolyticus (GC 4546) (Staphylococcus sp.; strain GC 4546) | MIC Enterococcus faecalis (ATCC 29212) (Enterococcus sp.; [1]) | MIC Enterococcus faecalis (GC 2242) (Enterococcus sp.; [1]) | MIC Enterococcus faecalis (GC 4552) (Enterococcus sp.; [1]) | MIC Enterococcus faecium (GC 4556) (Enterococcus sp.; [1]) | MIC Enterococcus faecalis (ATCC 29212) (Enterococcus sp.; strain ATCC 29212) | MIC Enterococcus faecalis (GC 2242) (Enterococcus sp.; strain GC 2242) | MIC Enterococcus faecalis (GC 4552) (Enterococcus sp.; strain GC 4552) | MIC Enterococcus faecium (GC 4556) (Enterococcus sp.; strain GC 4556)
<0.06 mg/L: MIC Streptococcus agalactiae (GC 4564) (Streptococcus sp.; [1]) | MIC Streptococcus pneumoniae (ATCC 6301) (Streptococcus sp.; [1]) | MIC Streptococcus pneumoniae (GC 1894) (Streptococcus sp.; [1]) | MIC Streptococcus pneumoniae (GC 4565) (Streptococcus sp.; [1]) | MIC Streptococcus pyogenes (GC 4563) (Streptococcus sp.; [1]) | MIC Streptococcus pneumoniae (ATCC 6301) (Streptococcus sp.; strain ATCC 6301) | MIC Streptococcus pneumoniae (GC 1894) (Streptococcus sp.; strain GC 1894) | MIC Streptococcus pyogenes (GC 4563) (Streptococcus sp.; strain GC 4563) | MIC Streptococcus agalactiae (GC 4564) (Streptococcus sp.; strain GC 4564) | MIC Streptococcus pneumoniae (GC 4565) (Streptococcus sp.; strain GC 4565)
4 mg/L: MIC Escherichi coli (GC 4560) (Escherichia coli; strain GC 4560) | MIC Staphylococcus aureus (ATCC 29213) (Staphylococcus sp.; [2]) | MIC Staphylococcus aureus (GC 4542) (Staphylococcus sp.; [2]) | MIC Staphylococcus aureus (GC 4544) (Staphylococcus sp.; [2]) | MIC Staphylococcus aureus (GC 4545) (Staphylococcus sp.; [2]) | MIC Staphylococcus aureus (ATCC 29213) (Staphylococcus sp.; strain ATCC 29213, broth dilution, 18 hours at 35° C.) | MIC Staphylococcus aureus (GC 4542) (Staphylococcus sp.; strain GC 4542, broth dilution, 18 hours at 35° C.) | MIC Staphylococcus aureus-SMITH (GC 4543) (Staphylococcus sp.; strain GC 4543) | MIC Staphylococcus aureus (GC 4544) (Staphylococcus sp.; strain GC 4544, broth dilution, 18 hours at 35° C.) | MIC Staphylococcus aureus (GC 4545) (Staphylococcus sp.; strain GC 4545, broth dilution, 18 hours at 35° C.) | MIC Coagulase Negative Staphylococcus (GC 4547) (Staphylococcus sp.; strain GC 4547) | MIC Coagulase Negative Staphylococcus (GC 4549) (Staphylococcus sp.; strain GC 4549) | MIC Coagulase Negative Staphylococcus (GC 4551) (Staphylococcus sp.; strain GC 4551) | MIC Enterococcus faecalis (GC 3059) (Enterococcus sp.; [1]) | MIC Enterococcus faecalis (GC 4553) (Enterococcus sp.; [1]) | MIC Enterococcus faecalis (GC 4554) (Enterococcus sp.; [1]) | MIC Enterococcus faecium (GC 4557) (Enterococcus sp.; [1]) | MIC Enterococcus faecalis (GC 3059) (Enterococcus sp.; strain GC 3059) | MIC Enterococcus faecalis (GC 4553) (Enterococcus sp.; strain GC 4553) | MIC Enterococcus faecalis (GC 4554) (Enterococcus sp.; strain GC 4554) | MIC Enterococcus faecium (GC 4557) (Enterococcus sp.; strain GC 4557)
